In patent US20130303509A1, “NAMPT INHIBITORS” (AbbVie Inc., priority 2012, published 2013):

These compounds were tested on PC3 cells (assay: NAMPT Cell Proliferation Assay). Details: Homo sapiens, PC-3, 120 h, 5 days incubation, cell viability by Cell Titer Glo.
Type: cell-based
Experimental: NAMPT Cell Proliferation Assay
PC3 cells were seeded in 96-well black plates (Corning #3904) at 500 cells)Owell in 90 µl of RPMI media containing 10% heat-inactivated FBS and incubated overnight at 37° C. and 5% CO2 to allow cells to attach to wells. The following day, test compounds were serially diluted in neat DMSO to 1000× final concentrations prior to dilution with RPMI media to 10× and 1% DMSO. […] of the 10× compounds were then transferred to wells containing cells to produce a dose response of 10-fold dilutions from […] to 1×10^−[…]. Cells were incubated for 5 days at 37° C. and 5% CO2, then cell viability was measured using Cell Titer Glo reagent (Promega #G7571). Percent inhibition values were calculated and fitted to a sigmoidal dose response curves using Assay Explorer software to determine IC50s.

SMILES	IC50
CCCCC(=O)N1CCC(Oc2ccc(NC(=O)C3CN(c4cccnc4)C3)cc2)CC1 [Example 34, N-{4-[(1-pentanoylpiperidin-4-yl)oxy]phenyl}-1-(pyridin-3-yl)azetidine-3-carboxamide]	6.8 nM
CC1CC1C(=O)N1CCC(Oc2ccc(NC(=O)C3CN(c4cccnc4)C3)cc2)CC1 (stereo not drawn) [Example 35, N-[4-({1-[(2-methylcyclopropyl)carbonyl]piperidin-4-yl}oxy)phenyl]-1-(pyridin-3-yl)azetidine-3-carboxamide]	6.92 nM
O=C(Nc1ccc(OC2CCN(C(=O)CC3C[C@@H]4CC[C@H]3C4)CC2)cc1)C1CN(c2cccnc2)C1 (stereo partly drawn) [Example 36, N-[4-({1-[(1S,4R)-bicyclo[2.2.1]hept-2-ylacetyl]piperidin-4-yl}oxy)phenyl]-1-(pyridin-3-yl)azetidine-3-carboxamide]	9.66 nM
CC(C)CCC(=O)N1CCC(Oc2ccc(NC(=O)C3CN(c4cccnc4)C3)cc2)CC1 [Example 37, N-(4-{[1-(4-methylpentanoyl)piperidin-4-yl]oxy}phenyl)-1-(pyridin-3-yl)azetidine-3-carboxamide]	6.48 nM
CCC(C)CC(=O)N1CCC(Oc2ccc(NC(=O)C3CN(c4cccnc4)C3)cc2)CC1 (stereo not drawn) [Example 38, N-(4-{[1-(3-methylpentanoyl)piperidin-4-yl]oxy}phenyl)-1-(pyridin-3-yl)azetidine-3-carboxamide]	6.39 nM
CCOCCC(=O)N1CCC(Oc2ccc(NC(=O)C3CN(c4cccnc4)C3)cc2)CC1 [Example 39, N-(4-{[1-(3-ethoxypropanoyl)piperidin-4-yl]oxy}phenyl)-1-(pyridin-3-yl)azetidine-3-carboxamide]	7.38 nM
CCC(C)(C)C(=O)N1CCC(Oc2ccc(NC(=O)C3CN(c4cccnc4)C3)cc2)CC1 [Example 40, N-(4-{[1-(2,2-dimethylbutanoyl)piperidin-4-yl]oxy}phenyl)-1-(pyridin-3-yl)azetidine-3-carboxamide]	2.17 nM
CC(C)(C)CC(=O)N1CCC(Oc2ccc(NC(=O)C3CN(c4cccnc4)C3)cc2)CC1 [Example 41, N-(4-{[1-(3,3-dimethylbutanoyl)piperidin-4-yl]oxy}phenyl)-1-(pyridin-3-yl)azetidine-3-carboxamide]	3.76 nM
CC(C)(C)C(=O)N1CCC(Oc2ccc(NC(=O)C3CN(c4cccnc4)C3)cc2)CC1 [Example 42, N-(4-{[1-(2,2-dimethylpropanoyl)piperidin-4-yl]oxy}phenyl)-1-(pyridin-3-yl)azetidine-3-carboxamide]	64.6 nM
CCCC(=O)N1CCC(Oc2ccc(NC(=O)C3CN(c4cccnc4)C3)cc2)CC1 [Example 43, N-{4-[(1-butanoylpiperidin-4-yl)oxy]phenyl}-1-(pyridin-3-yl)azetidine-3-carboxamide]	6.88 nM
CCOCC(=O)N1CCC(Oc2ccc(NC(=O)C3CN(c4cccnc4)C3)cc2)CC1 [Example 44, N-(4-{[1-(ethoxyacetyl)piperidin-4-yl]oxy}phenyl)-1-(pyridin-3-yl)azetidine-3-carboxamide]	5.47 nM
CC(C)CC(=O)N1CCC(Oc2ccc(NC(=O)C3CN(c4cccnc4)C3)cc2)CC1 [Example 45, N-(4-{[1-(3-methylbutanoyl)piperidin-4-yl]oxy}phenyl)-1-(pyridin-3-yl)azetidine-3-carboxamide]	6.77 nM
CC(C)C(=O)N1CCC(Oc2ccc(NC(=O)C3CN(c4cccnc4)C3)cc2)CC1 [Example 46, N-(4-{[1-(2-methylpropanoyl)piperidin-4-yl]oxy}phenyl)-1-(pyridin-3-yl)azetidine-3-carboxamide]	3.01 nM
CC(=O)N[C@@H](CC(C)C)C(=O)N1CCC(Oc2ccc(NC(=O)C3CN(c4cccnc4)C3)cc2)CC1 [Example 47, N-(4-{[1-(N-acetyl-L-leucyl)piperidin-4-yl]oxy}phenyl)-1-(pyridin-3-yl)azetidine-3-carboxamide]	3.35 nM
COCCOCC(=O)N1CCC(Oc2ccc(NC(=O)C3CN(c4cccnc4)C3)cc2)CC1 [Example 48, N-[4-({1-[(2-methoxyethoxy)acetyl]piperidin-4-yl}oxy)phenyl]-1-(pyridin-3-yl)azetidine-3-carboxamide]	2.88 nM
O=C(Nc1ccc(OC2CCN(C(=O)C3CCCCC3)CC2)cc1)C1CN(c2cccnc2)C1 [Example 49, N-(4-{[1-(cyclohexylcarbonyl)piperidin-4-yl]oxy}phenyl)-1-(pyridin-3-yl)azetidine-3-carboxamide]	6.96 nM
O=C(Nc1ccc(OC2CCN(C(=O)CC3CCCCC3)CC2)cc1)C1CN(c2cccnc2)C1 [Example 50, N-(4-{[1-(cyclohexylacetyl)piperidin-4-yl]oxy}phenyl)-1-(pyridin-3-yl)azetidine-3-carboxamide]	8.95 nM
O=C(Nc1ccc(OC2CCN(C(=O)CCC(F)(F)F)CC2)cc1)C1CN(c2cccnc2)C1 [Example 51, 1-(pyridin-3-yl)-N-(4-{[1-(4,4,4-trifluorobutanoyl)piperidin-4-yl]oxy}phenyl)azetidine-3-carboxamide]	3.62 nM
O=C(Nc1ccc(OC2CCN(C(=O)C3CCCC3)CC2)cc1)C1CN(c2cccnc2)C1 [Example 52, N-(4-{[1-(cyclopentylcarbonyl)piperidin-4-yl]oxy}phenyl)-1-(pyridin-3-yl)azetidine-3-carboxamide]	6.28 nM
CC1(C(=O)N2CCC(Oc3ccc(NC(=O)C4CN(c5cccnc5)C4)cc3)CC2)CCCCC1 [Example 53, N-[4-({1-[(1-methylcyclohexyl)carbonyl]piperidin-4-yl}oxy)phenyl]-1-(pyridin-3-yl)azetidine-3-carboxamide]	3.67 nM
O=C(Nc1ccc(OC2CCN(C(=O)c3ccoc3)CC2)cc1)C1CN(c2cccnc2)C1 [Example 54, N-(4-{[1-(furan-3-ylcarbonyl)piperidin-4-yl]oxy}phenyl)-1-(pyridin-3-yl)azetidine-3-carboxamide]	3.31 nM
O=C(Nc1ccc(OC2CCN(C(=O)CC(F)(F)F)CC2)cc1)C1CN(c2cccnc2)C1 [Example 55, 1-(pyridin-3-yl)-N-(4-{[1-(3,3,3-trifluoropropanoyl)piperidin-4-yl]oxy}phenyl)azetidine-3-carboxamide]	21.1 nM
CC(=O)N1CCC(Oc2ccc(NC(=O)C3CN(c4cccnc4)C3)cc2)CC1 [Example 56, N-{4-[(1-acetylpiperidin-4-yl)oxy]phenyl}-1-(pyridin-3-yl)azetidine-3-carboxamide]	9.27 nM
COCC(=O)N1CCC(Oc2ccc(NC(=O)C3CN(c4cccnc4)C3)cc2)CC1 [Example 57, N-(4-{[1-(methoxyacetyl)piperidin-4-yl]oxy}phenyl)-1-(pyridin-3-yl)azetidine-3-carboxamide]	8.75 nM
O=C(Nc1ccc(OC2CCN(C(=O)c3ccsc3)CC2)cc1)C1CN(c2cccnc2)C1 [Example 58, 1-(pyridin-3-yl)-N-(4-{[1-(thiophen-3-ylcarbonyl)piperidin-4-yl]oxy}phenyl)azetidine-3-carboxamide]	6.48 nM
Cc1ccsc1C(=O)N1CCC(Oc2ccc(NC(=O)C3CN(c4cccnc4)C3)cc2)CC1 [Example 59, N-[4-({1-[(3-methylthiophen-2-yl)carbonyl]piperidin-4-yl}oxy)phenyl]-1-(pyridin-3-yl)azetidine-3-carboxamide]	6.14 nM
O=C(Nc1ccc(OC2CCN(C(=O)CN3CCOCC3)CC2)cc1)C1CN(c2cccnc2)C1 [Example 60, N-(4-{[1-(morpholin-4-ylacetyl)piperidin-4-yl]oxy}phenyl)-1-(pyridin-3-yl)azetidine-3-carboxamide]	5.07 nM
